Usually pIC50 stands for the negative decadic logarithm of the IC50, by convention in mol/L.

pIC50: −log10 of the molar value. Where two headings read alike, the source gives them in different places.

Test [1] concerns the target T1, c-Met (baculovirus expressed human c-Met kinase domain P948-S1343) (Homo sapiens, UniProt P08581).
T1 construct: human c-Met kinase domain P948-S1343; host or cells: baculovirus expression
Kind of test: c-Met Luciferase-Coupled Chemiluminescent Kinase assay (LCCA).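 Also: kinase activity read as percent ATP left after reaction, by luciferase-luciferin chemiluminescence, with 1 µM ATP and 1 µM poly-EY substrate, 2 h at ambient temperature, 10-point dose-response.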 It counts as biochemical.
Procedure: Kinase activity and compound inhibition are investigated using one or more of the three assay formats described below. The ATP concentrations for each assay are selected to be close to the Michaelis-Menten constant (KM) for each individual kinase. Dose-response experiments are performed at 10 different inhibitor concentrations in a 384-well plate format. […] Typically H is close to unity. c-Met Assay
c-Met biochemical activity was assessed using a Luciferase-Coupled Chemiluminescent Kinase assay (LCCA) format as described above. Again, kinase activity was measured as the percent ATP remaining following the kinase reaction. Remaining ATP was detected by luciferase-luciferin-coupled chemiluminescence. Specifically, the reaction was initiated by mixing test compounds, 1 μM ATP, 1 μM poly-EY and 10 nM c-Met (baculovirus expressed human c-Met kinase domain P948-S1343) in a 20 uL assay buffer (20 mM Tris-HCL pH7.5, 10 mM MgCl2, 0.02% Triton X-100, 100 mM DTT, 2 mM MnCu2). The mixture is incubated at ambient temperature for 2 hours after which 20 uL luciferase-luciferin mix is added and the chemiluminescent signal read using a Wallac Victor^2 reader.

The target in test [2] is T2, KDR (baculovirus expressed human KDR kinase domain D807-V1356) (Homo sapiens, UniProt P35968).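 Also: Luciferase-coupled chemiluminescent kinase assay, activity read as percent ATP left after 4 h reaction at ambient temperature, ATP near KM, 10-point dose-response in 384-well plates.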
T2 construct: human KDR kinase domain D807-V1356; host or cells: baculovirus expression
The test can be described thus: biochemical.

For test [3], the target named is T3, Flt-3 (baculovirus expressed human Flt-3 kinase domain R571-S993) (Homo sapiens, UniProt P36888).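 Also: Luciferase-coupled chemiluminescent kinase assay, activity read as percent ATP left after a 3 h reaction at room temperature, ATP near KM, 10-point dose-response.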
T3 construct: human Flt-3 kinase domain R571-S993; host or cells: baculovirus expression
T3 sequence (P36888 571-993): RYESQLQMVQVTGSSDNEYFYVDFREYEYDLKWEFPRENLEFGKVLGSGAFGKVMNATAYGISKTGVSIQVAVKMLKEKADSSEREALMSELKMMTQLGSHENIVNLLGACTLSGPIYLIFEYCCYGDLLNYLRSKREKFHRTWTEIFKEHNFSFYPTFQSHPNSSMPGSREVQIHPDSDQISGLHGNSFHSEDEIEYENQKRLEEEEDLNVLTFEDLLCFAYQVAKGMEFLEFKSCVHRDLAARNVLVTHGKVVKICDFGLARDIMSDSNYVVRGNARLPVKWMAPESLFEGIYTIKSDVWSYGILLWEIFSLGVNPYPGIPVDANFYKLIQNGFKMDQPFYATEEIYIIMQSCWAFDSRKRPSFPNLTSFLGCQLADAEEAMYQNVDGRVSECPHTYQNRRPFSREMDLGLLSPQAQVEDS
Kind of test: biochemical. Particulars: read-out: flt3 IC50.

Setting [4] is: Table 4, inhibition as IC50 class.

T2 sequence (P35968 807-1356): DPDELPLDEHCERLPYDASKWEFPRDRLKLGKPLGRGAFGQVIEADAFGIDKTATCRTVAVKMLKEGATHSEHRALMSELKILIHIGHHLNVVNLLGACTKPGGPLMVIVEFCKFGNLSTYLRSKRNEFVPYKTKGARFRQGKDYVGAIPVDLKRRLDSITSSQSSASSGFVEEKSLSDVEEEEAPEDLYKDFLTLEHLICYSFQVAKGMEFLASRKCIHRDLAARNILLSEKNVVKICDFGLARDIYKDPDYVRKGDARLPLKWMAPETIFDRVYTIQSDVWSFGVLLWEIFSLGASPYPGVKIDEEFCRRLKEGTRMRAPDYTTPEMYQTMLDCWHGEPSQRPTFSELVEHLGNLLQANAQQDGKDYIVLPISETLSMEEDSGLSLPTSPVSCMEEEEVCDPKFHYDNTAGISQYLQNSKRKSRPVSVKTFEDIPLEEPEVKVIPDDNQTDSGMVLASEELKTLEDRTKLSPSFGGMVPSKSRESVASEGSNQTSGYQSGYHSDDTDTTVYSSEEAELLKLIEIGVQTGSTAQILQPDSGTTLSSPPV
T1 sequence (P08581 1011-1343 limits assumed): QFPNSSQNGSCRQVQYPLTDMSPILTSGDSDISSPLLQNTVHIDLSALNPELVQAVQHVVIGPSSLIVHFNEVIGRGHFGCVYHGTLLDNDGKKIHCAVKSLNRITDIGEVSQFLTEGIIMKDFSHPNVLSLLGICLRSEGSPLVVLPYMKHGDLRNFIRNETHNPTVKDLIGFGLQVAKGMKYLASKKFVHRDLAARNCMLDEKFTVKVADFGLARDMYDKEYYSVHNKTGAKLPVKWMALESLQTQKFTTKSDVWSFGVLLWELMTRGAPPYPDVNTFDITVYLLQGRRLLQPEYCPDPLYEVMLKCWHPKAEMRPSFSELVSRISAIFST

`COc1cc(CNC(=O)C(=O)Nc2ccc(Oc3ccnc4cc(OCC5CCNCC5)c(OC)cc34)c(F)c2)cc(OC)c1` [Example 269, N-{[3,5-bis(methyloxy)phenyl]methyl}-N′-[3-fluoro-4-({6-(methyloxy)-7-[(piperidin-4-ylmethyl)oxy]quinolin-4-yl}oxy)phenyl]ethanediamide]: the pIC50 in test [1] (setting [4]), in test [2] (setting [4]) and in test [3] (setting [4]) was over 7.30 in each case.

For `CCN(CC)CCCOc1cc2c(Oc3ccc(NC(=O)C4(C(=O)Nc5ccc(F)cc5)CC4)cc3F)ccnc2cc1OC` [Example 344, N-(4-{[6-{[3-(diethylamino)propyl]oxy}-7-(methyloxy)quinolin-4-yl]oxy}-3-fluorophenyl)-N′-(4-fluorophenyl)cyclopropane-1,1-dicarboxamide], the negative logarithm of the IC50 (pIC50) in test [1], in test [2] and in test [3] was over 7.30 each time.

With `CCN(CC)CCOc1cc2c(Oc3ccc(NC(=O)C4(C(=O)Nc5ccc(F)cc5)CC4)cc3F)ccnc2cc1OC` [Example 345, N-(4-{[6-{[2-(diethylamino)ethyl]oxy}-7-(methyloxy)quinolin-4-yl]oxy}-3-fluorophenyl)-N′-(4-fluorophenyl)cyclopropane-1,1-dicarboxamide], the negative logarithm of the IC50 (pIC50) in test [1], in test [2] and in test [3] was over 7.30 each time.

As for `COc1cc2c(Oc3ccc(NC(=O)C4(C(=O)Nc5ccc(F)cc5)CC4)cc3F)ccnc2cc1OCCCN1CCN(C(=O)OC(C)(C)C)CC1` [Example 346, 1,1-dimethylethyl 4-(3-{[4-[(2-fluoro-4-{[(1-{[(4-fluorophenyl)amino]carbonyl}cyclopropyl)carbonyl]amino}phenyl)oxy]-6-(methyloxy)quinolin-7-yl]oxy}propyl)piperazine-1-carboxylate], the figures for the negative-log IC50 (pIC50) in test [1], in test [2] and in test [3] were over 7.30, over 7.30 and 6.30 to 7.30, respectively.

`CCN(CC)CCOc1cc2ncnc(Oc3ccc(NC(=O)[C@]4(C(=O)Nc5ccc(F)cc5)C[C@H]4C)cc3F)c2cc1OC` [Example 348, (1R,2R)-N-(4-{[7-{[2-(diethylamino)ethyl]oxy}-6-(methyloxy)quinazolin-4-yl]oxy}-3-fluorophenyl)-N′-(4-fluorophenyl)-2-methylcyclopropane-1,1-dicarboxamide]: the negative-log IC50 (pIC50) was over 7.30 in test [1], over 7.30 in test [2] and 6.30 to 7.30 in test [3].

Regarding `CCN(CC)CCCOc1cc2ncnc(Oc3ccc(NC(=O)C4(C(=O)Nc5ccc(F)cc5)CC4)cc3F)c2cc1OC` [Example 349, N-(4-{[7-{[3-(diethylamino)propyl]oxy}-6-(methyloxy)quinazolin-4-yl]oxy}-3-fluorophenyl)-N′-(4-fluorophenyl)cyclopropane-1,1-dicarboxamide], the pIC50 in test [1], in test [2] and in test [3] was over 7.30 throughout.

As for `COc1cc2c(Oc3ccc(NC(=O)C4(C(=O)Nc5ccc(F)cc5)CC4)cc3F)ccnc2cc1OCCCN1CCN(C(C)=O)CC1` [Example 350, N-(4-{[7-{[3-(4-acetylpiperazin-1-yl)propyl]oxy}-6-(methyloxy)quinolin-4-yl]oxy}-3-fluorophenyl)-N′-(4-fluorophenyl)cyclopropane-1,1-dicarboxamide], the pIC50 in test [1], in test [2] and in test [3] was over 7.30 each time.

For the compound `COc1cc2c(Oc3ccc(NC(=O)[C@]4(C(=O)Nc5ccc(F)cc5)C[C@H]4C)cc3F)ccnc2cc1OCCCN1CCN(C(=O)OC(C)(C)C)CC1` [Example 351, 1,1-dimethylethyl 4-(3-{[4-[(2-fluoro-4-{[((1R,2R)-1-{[(4-fluorophenyl)amino]carbonyl}-2-methylcyclopropyl)carbonyl]amino}phenyl)oxy]-6-(methyloxy)quinolin-7-yl]oxy}propyl)piperazine-1-carboxylate], the pIC50 in test [1] is over 7.30; in test [2] it was over 7.30; in test [3], 6.30 to 7.30.

For `COc1cc2nccc(Oc3ccc(NC(=O)C4(C(=O)Nc5ccc(F)cc5)CN(Cc5ccccc5)C4)cc3)c2cc1OC` [Example 352, N-(4-{[6,7-bis(methyloxy)quinolin-4-yl]oxy}phenyl)-N′-(4-fluorophenyl)-1-(phenylmethyl)azetidine-3,3-dicarboxamide], the pIC50 in test [1] is over 7.30; in test [2], 5.30 to 6.30; in test [3] it was 5.30 to 6.30.

Consider `COc1cc2nccc(Oc3ccc(NC(=O)C4(C(=O)Nc5ccc(F)cc5)CNC4)cc3)c2cc1OC` [Example 353, N-(4-{[6,7-bis(methyloxy)quinolin-4-yl]oxy}phenyl)-N′-(4-fluorophenyl)azetidine-3,3-dicarboxamide], for which the pIC50 was 6.30 to 7.30 in test [1], 5.30 to 6.30 in test [2] and 5.30 to 6.30 in test [3].

Regarding `COc1cc2c(Oc3ccc(NC(=O)[C@]4(C(=O)Nc5ccc(F)cc5)C[C@@H]4C)cc3F)ccnc2cc1OCCCN1CCN(C)CC1` [Example 354, (1R,2S)-N-{3-fluoro-4-[(6-(methyloxy)-7-{[3-(4-methylpiperazin-1-yl)propyl]oxy}quinolin-4-yl)oxy]phenyl}-N′-(4-fluorophenyl)-2-methylcyclopropane-1,1-dicarboxamide], the pIC50 in test [1], in test [2] and in test [3] was over 7.30 throughout.

Turning to `COc1cc2c(Oc3ccc(NC(=O)[C@]4(C(=O)Nc5ccc(F)cc5)C[C@H]4C)cc3F)ccnc2cc1OCCCN1CCN(C)CC1` [Example 355, (1R,2R)-N-{3-fluoro-4-[(6-(methyloxy)-7-{[3-(4-methylpiperazin-1-yl)propyl]oxy}quinolin-4-yl)oxy]phenyl}-N′-(4-fluorophenyl)-2-methylcyclopropane-1,1-dicarboxamide], the negative logarithm of the IC50 (pIC50) in test [1], in test [2] and in test [3] was over 7.30 throughout.

Regarding `COc1cc2c(Oc3ccc(NC(=O)[C@]4(C(=O)Nc5ccc(F)cc5)C[C@H]4C)cc3F)ccnc2cc1OCCCN1CCNCC1` [Example 356, (1R,2R)-N-[3-fluoro-4-({6-(methyloxy)-7-[(3-piperazin-1-ylpropyl)oxy]quinolin-4-yl}oxy)phenyl]-N′-(4-fluorophenyl)-2-methylcyclopropane-1,1-dicarboxamide], the negative logarithm of the IC50 (pIC50) in test [1], in test [2] and in test [3] was over 7.30 each time.

`COc1cc2c(Oc3ccc(NC(=O)C4(C(=O)Nc5ccc(F)cc5)CC4)cc3F)ccnc2cc1OCCCN1CCN(C(C)C)CC1` [Example 357, N-(3-fluoro-4-{[7-({3-[4-(1-methylethyl)piperazin-1-yl]propyl}oxy)-6-(methyloxy)quinolin-4-yl]oxy}phenyl)-N′-(4-fluorophenyl)cyclopropane-1,1-dicarboxamide]: the pIC50 in test [1], in test [2] and in test [3] was over 7.30 each time.

Turning to `CCN(CC)CCCOc1cc2nccc(Oc3ccc(NC(=O)[C@]4(C(=O)Nc5ccc(F)cc5)C[C@H]4C)cc3F)c2cc1OC` [Example 359, (1R,2R)-N-(4-{[7-{[3-(diethylamino)propyl]oxy}-6-(methyloxy)quinolin-4-yl]oxy}-3-fluorophenyl)-N′-(4-fluorophenyl)-2-methylcyclopropane-1,1-dicarboxamide], the negative-log IC50 (pIC50) in test [1], in test [2] and in test [3] was over 7.30 each time.

`CCN(CC)CCOc1cc2nccc(Oc3ccc(NC(=O)[C@]4(C(=O)Nc5ccc(F)cc5)C[C@H]4C)cc3F)c2cc1OC` [Example 360, (1R,2R)-N-(4-{[7-{[2-(diethylamino)ethyl]oxy}-6-(methyloxy)quinolin-4-yl]oxy}-3-fluorophenyl)-N′-(4-fluorophenyl)-2-methylcyclopropane-1,1-dicarboxamide]: the negative-log IC50 (pIC50) in test [1], in test [2] and in test [3] was over 7.30 each time.

`CCN(CC)CCCOc1cc2nccc(Oc3ccc(NC(=O)[C@]4(C(=O)Nc5ccc(F)cc5)C[C@@H]4C)cc3F)c2cc1OC` [Example 361, (1R,2S)-N-(4-{[7-{[3-(diethylamino)propyl]oxy}-6-(methyloxy)quinolin-4-yl]oxy}-3-fluorophenyl)-N′-(4-fluorophenyl)-2-methylcyclopropane-1,1-dicarboxamide]: the pIC50 in test [1], in test [2] and in test [3] was over 7.30 throughout.

Consider `COc1cc2nccc(Oc3ccc(NC(=O)C4(C(=O)Nc5cccc(CN6CCCCC6)c5)CC4)cc3)c2cc1OC` [Example 400, N-(4-{[6,7-bis(methyloxy)quinolin-4-yl]oxy}phenyl)-N′-[3-(piperidin-1-ylmethyl)phenyl]cyclopropane-1,1-dicarboxamide], for which the pIC50 in test [1] was 6.30 to 7.30; in test [2], over 7.30.

As to `COc1cc2nccc(Oc3ccc(NC(=O)C4(C(=O)Nc5cccc(CN6CCCC6)c5)CC4)cc3)c2cc1OC` [Example 401, N-(4-{[6,7-bis(methyloxy)quinolin-4-yl]oxy}phenyl)-N′-[3-(pyrrolidin-1-ylmethyl)phenyl]cyclopropane-1,1-dicarboxamide], the pIC50 in test [1] and in test [2] was over 7.30 each time.
